Here are results for ten compounds from paper PMC4674063, “Uncovering the Molecular Mechanism of Actions between Pharmaceuticals and Proteins on the AD Network” (PLoS ONE, 2015).

Read-outs that look alike come from different tables or passages of the source.

One data set addresses NEP (Homo sapiens, UniProt P08473). Nature of the data set: Wet-lab test of inhibition of NEP. The format is biochemical. More on the design: inhibition rate / quenching efficiency: concentration or dose not given beside the values.
The target in another data set is T1, IDE (Homo sapiens, UniProt P14735).
T1 sequence (P14735 1-1019): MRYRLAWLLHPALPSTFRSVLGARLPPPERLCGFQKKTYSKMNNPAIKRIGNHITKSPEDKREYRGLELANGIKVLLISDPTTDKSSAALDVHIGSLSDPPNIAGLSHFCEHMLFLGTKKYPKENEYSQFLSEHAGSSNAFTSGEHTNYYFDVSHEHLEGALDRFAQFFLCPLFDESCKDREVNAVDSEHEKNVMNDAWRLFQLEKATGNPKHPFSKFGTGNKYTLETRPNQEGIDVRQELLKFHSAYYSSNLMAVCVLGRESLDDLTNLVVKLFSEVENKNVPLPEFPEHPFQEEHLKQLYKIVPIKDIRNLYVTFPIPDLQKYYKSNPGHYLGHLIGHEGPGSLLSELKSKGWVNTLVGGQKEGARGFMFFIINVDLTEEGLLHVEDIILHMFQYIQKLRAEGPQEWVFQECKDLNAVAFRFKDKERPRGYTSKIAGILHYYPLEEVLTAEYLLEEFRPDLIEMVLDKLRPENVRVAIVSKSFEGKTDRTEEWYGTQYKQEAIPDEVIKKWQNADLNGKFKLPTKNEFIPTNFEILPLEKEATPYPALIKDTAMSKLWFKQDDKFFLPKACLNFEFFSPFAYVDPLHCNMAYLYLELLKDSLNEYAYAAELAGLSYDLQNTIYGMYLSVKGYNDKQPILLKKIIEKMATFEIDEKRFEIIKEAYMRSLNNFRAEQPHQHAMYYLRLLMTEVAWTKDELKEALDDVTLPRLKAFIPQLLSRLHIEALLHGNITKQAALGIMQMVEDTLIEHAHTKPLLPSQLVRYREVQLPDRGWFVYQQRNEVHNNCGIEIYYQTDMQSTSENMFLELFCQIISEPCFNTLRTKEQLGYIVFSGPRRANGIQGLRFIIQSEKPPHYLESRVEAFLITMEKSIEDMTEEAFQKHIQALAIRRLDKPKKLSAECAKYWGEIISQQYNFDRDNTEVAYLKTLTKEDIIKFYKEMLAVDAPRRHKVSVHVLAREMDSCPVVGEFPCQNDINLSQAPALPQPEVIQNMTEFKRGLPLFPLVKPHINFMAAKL
The data set is described as follows: Wet-lab test of inhibition of IDE. It is filed as biochemical. Particulars: for inhibition rate / quenching efficiency / IC50: binding to IDE; for IC50: computed value.

The conditions of data set [1]: cited from earlier work.
[2] abbreviates: conclusion from both amiloride analogs.

NEP, sequence (P08473 whole entry): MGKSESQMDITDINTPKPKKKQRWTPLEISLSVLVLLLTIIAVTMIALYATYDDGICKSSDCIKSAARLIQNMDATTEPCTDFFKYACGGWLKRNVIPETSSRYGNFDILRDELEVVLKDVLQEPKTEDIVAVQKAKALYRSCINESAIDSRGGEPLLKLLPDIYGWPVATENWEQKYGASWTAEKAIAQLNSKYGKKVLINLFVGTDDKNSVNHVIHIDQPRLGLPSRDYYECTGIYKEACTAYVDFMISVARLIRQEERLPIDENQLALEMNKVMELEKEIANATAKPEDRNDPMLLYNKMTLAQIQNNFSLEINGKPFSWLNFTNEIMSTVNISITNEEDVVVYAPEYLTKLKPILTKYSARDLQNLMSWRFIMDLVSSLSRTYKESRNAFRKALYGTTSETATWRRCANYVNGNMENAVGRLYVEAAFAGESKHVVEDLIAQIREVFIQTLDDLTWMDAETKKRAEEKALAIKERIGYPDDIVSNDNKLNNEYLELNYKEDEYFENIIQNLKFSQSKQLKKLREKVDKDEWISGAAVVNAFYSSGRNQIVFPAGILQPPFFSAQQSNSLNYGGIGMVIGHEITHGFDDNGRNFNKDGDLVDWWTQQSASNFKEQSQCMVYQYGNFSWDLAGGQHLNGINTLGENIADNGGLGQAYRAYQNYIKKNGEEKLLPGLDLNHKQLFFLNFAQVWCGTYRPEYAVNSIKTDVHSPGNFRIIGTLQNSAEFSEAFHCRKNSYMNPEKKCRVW

As a reminder, the IC50 is the concentration that gives 50% inhibition. In the case of `CN(C)c1nc(N)c(C(=O)N=C(N)N)nc1Cl.Cl` [5-(N,N-Dimethyl) amiloride hydrochloride], on NEP (binding to NEP), the inhibition rate came out at 80.96% and the quenching efficiency worked out at 54.77%. For the same compound, the IC50 on NEP (binding to NEP, computed value) is 829 µM. In addition, on IDE, the inhibition rate is on record as 93.57%, the quenching efficiency is recorded as 54.77% and the IC50 is 178 µM.
For the compound `NC(=O)C1=CN([C@@H]2O[C@H](COP(=O)(O)OP(=O)(O)OC[C@H]3O[C@@H](n4cnc5c(N)ncnc54)[C@H](O)[C@@H]3O)[C@@H](O)[C@H]2O)C=CC1` [NAI, NADH], the “crosses the BBB” value in data set [1] is reported as “cross the BBB”.
Consider `OCCN1C[C@H](O)[C@@H](O)[C@H](O)[C@H]1CO` [MIG, Miglitol], for which, in data set [1] (ref not given), the “crosses the BBB” value is listed as “cannot cross BBB”.
As for `COc1ccc2c3c1O[C@H]1C[C@@H](O)C=C[C@@]31CCN(C)C2` [GNT, galantamine], the “crosses the blood-brain barrier (BBB)” value in data set [1] is recorded as “cross the blood-brain barrier”.
As for `N=C(N)NC(=O)c1nc(Cl)c(N)nc1N` [AMR, Amiloride], the “inhibition of NEP (in words)” value against NEP (setting [2]) is listed as “weakly inhibits NEP”. The “inhibition of IDE (in words)” value against IDE (setting [2]) was “strongly inhibits IDE”.
For the compound `Cc1c(C)c2c(c(C)c1O)CC[C@@](C)(CCC[C@H](C)CCC[C@H](C)CCCC(C)C)O2` [VIV, Vitamin E], the “crosses the BBB” value in data set [1] was “cross the BBB”.
In the case of `O=C(O)CNC(=O)C(CS)Cc1ccccc1` (racemic) [DL-Thiophan], on NEP (binding to NEP), the inhibition rate was 102.01%.
Take `Cl.N=C(N)NC(=O)c1nc(Cl)c(N)nc1N.O.O` [Amiloride HCl dihydrate]: at NEP (binding to NEP), the inhibition rate is listed as 65.21% and the quenching efficiency is -6.64%. Moreover, on IDE, the inhibition rate came to 95.02%, the quenching efficiency is -6.64% and the IC50 came out at 214 µM.
As for `Nc1c2c(nc3ccccc13)CCCC2` [THA, tacrine], in data set [1] (in vivo), the “crosses the blood-brain barrier (BBB)” value is “cross the blood-brain barrier”.
Turning to `C/C=C1\[C@H]2C=C(C)C[C@]1(N)c1ccc(=O)[nH]c1C2` [HUP, Huperzine A], the “crosses the blood-brain barrier (BBB)” value in data set [1] (in vivo) is listed as “cross the blood-brain barrier”.
